Data published in CN117003659A, “一种可离子化脂质或其药学上可接受的盐、组合物和应用” (priority 2023, dated 2023).

What was measured:
[1] = test system: HEK293T cells (HEK293T细胞); assay type: cell-based; conditions: RBD mRNA-LNP, mRNA 1 μg, 24 h, cell supernatant
[2] = test system: human umbilical vein endothelial cells (人脐静脉内皮细胞, HUVEC); test: In vitro expression of VEGFa mRNA-LNP, ELISA of VEGFa protein (Example 6); assay type: cell-based; conditions: mRNA 1 μg, 24 h
[3] = test system: female BALB/C mice (雌性BALB/C小鼠); test: In vivo expression of Fluc mRNA-LNP, live fluorescence imaging (Example 7); set-up: species or system mouse; conditions: for fluorescence intensity of expressed protein compared with U-102, U-104, U-106, U-108, U-110, U-112 (in words): mRNA-LNP, versus U-102, U-104, U-106, U-108, U-110, U-112; for fluorescence intensity (total luminous flux) / course of fluorescence intensity at 24 h (in words): mice, 20 μg Fluc mRNA, intramuscular; for fluorescence intensity (total luminous flux): 6 h, order of magnitude

Row | Compound | RBD protein concentration [1] [ng/mL] | VEGFa protein concentration [2] [ng/mL] | fluorescence intensity of expressed protein compared with U-102, U-104, U-106, U-108, U-110, U-112 (in words) [3] | fluorescence intensity (total luminous flux) [3] | course of fluorescence intensity at 24 h (in words) [3]
1 | CCCCCCCCC(CCCCCC)COC(=O)CCCCN(CCCCC(=O)OCC(CCCCCC)CCCCCCCC)CCCN(CCO)CCO (stereo not shown) [UR-304, 双(2-己基癸基)-5,5'-((3-(双(2-羟乙基)氨基)丙基)氮杂二烷基)二戊酸酯] | 5.4 | 4.9 |  |  | 
2 | CCCCCCCCC(CCCCCCCC)OC(=O)CCCCCN(CCCCCC(=O)OC(CCCCCCCC)CCCCCCCC)CCCN(CCO)CCO [U-105, 双(1-辛基壬基)-6,6'-((3-(双(2-羟乙基)氨基)丙基)氮杂二烷基)二己酸酯] | 48.4 | 48.3 | 更高一些 |  | 
3 | CCCCCCCCCCCCOC(=O)CCCCCCN(CCCCCCC(=O)OC(CCCCCCC)CCCCCCC)CCN(CCO)CCO [U-112, O-1-庚基辛基-O’-十二烷基-7,7'-((2-(双(2-羟乙基)氨基)乙基)氮杂二烷基)二庚酸酯] | 42.8 | 36.1 |  |  | 
4 | CCCCCCCC(CCCCCCC)OC(=O)CCCCCCN(CCCCCCC(=O)OC(CCCCCCC)CCCCCCC)CCN(CCO)CCO [U-110, 双(1-庚基辛基)-7,7'-((2-(双(2-羟乙基)氨基)乙基)氮杂二烷基)二庚酸酯] | 41.6 | 36.8 |  |  | 
5 | CCCCCCCCC(CCCCCC)COC(=O)CCCCCCN(CCCCCCC(=O)OCC(CCCCCC)CCCCCCCC)CCN(CCO)CCO (stereo not shown) [U-102, 双(2-己基癸基)-7,7'-((2-(双(2-羟乙基)氨基)乙基)氮杂二烷基)二庚酸酯] | 49.3 | 48.7 |  |  | 
6 | CCCCCCCCCCCCOC(=O)CCCCCN(CCCCCC(=O)OC(CCCCCCCC)CCCCCCCC)CCCN(CCO)CCO [U-107, O-1-辛基壬基-O’-十二烷基-6,6'-((3-(双(2-羟乙基)氨基)丙基)氮杂二烷基)二己酸酯] | 47.6 | 47.7 | 更高一些 |  | 
7 | CCCCCCCCC(CCCCCC)COC(=O)CCCCCCCN(CCCCCCCC(=O)OCC(CCCCCC)CCCCCCCC)CCN(CCO)CCO (stereo not shown) [UR-303, 双(2-己基癸基)-8,8'-((2-(双(2-羟乙基)氨基)乙基)氮杂二烷基)二辛酸酯] | 6.4 | 6.2 |  |  | 
8 | CCCCCCCCCCCCOC(=O)CCCCCN(CCCCCC(=O)OCC(CCCCCC)CCCCCCCC)CCCN(CCO)CCO (stereo not shown) [U-103, O-2-己基癸基-O’-十二烷基-6,6'-((3-(双(2-羟乙基)氨基)丙基)氮杂二烷基)二己酸酯] | 49.6 | 49.6 | 更高一些 |  | 
9 | CCCCCCCCC(CCCCCC)COC(=O)CCCCCN(CCCCCC(=O)OCC(CCCCCC)CCCCCCCC)CCN(CCO)CCO (stereo not shown) [UR-301, 双(2-己基癸基)-6,6'-((2-(双(2-羟乙基)氨基)乙基)氮杂二烷基)二己酸酯] | 6.8 | 4.8 |  |  | 
10 | CCCCCCCCC(CCCCCC)C(=O)OCCCCCCN(CCCCO)CCCCCCOC(=O)C(CCCCCC)CCCCCCCC (stereo not shown) [ALC-0315, ((4-羟基丁基)氮杂二基)双(己烷-6,1-二基)双(2-己基癸酸酯), reference compound] | 8.5 | 7.9 |  | ~10^7 p/s | 开始减弱
11 | CCCCCCCCCCCCOC(=O)CCCCCCN(CCCCCCC(=O)OC(CCCCCCCC)CCCCCCCC)CCN(CCO)CCO [U-108, O-1-辛基壬基-O’-十二烷基-7,7'-((2-(双(2-羟乙基)氨基)乙基)氮杂二烷基)二庚酸酯] | 45.7 | 45.3 |  |  | 
12 | CCCCCCCC(CCCCCCC)OC(=O)CCCCCN(CCCCCC(=O)OC(CCCCCCC)CCCCCCC)CCCN(CCO)CCO [U-109, 双(1-庚基辛基)-6,6'-((3-(双(2-羟乙基)氨基)丙基)氮杂二烷基)二己酸酯] | 43.2 | 39.2 | 更高一些 |  | 
13 | CCCCCCCCC(CCCCCC)COC(=O)CCCCCCN(CCCCCCC(=O)OCC(CCCCCC)CCCCCCCC)CCCN(CCO)CCO (stereo not shown) [UR-302, 双(2-己基癸基)-7,7'-((3-(双(2-羟乙基)氨基)丙基)氮杂二烷基)二庚酸酯] | 4.5 | 3.7 |  |  | 
14 | CCCCCCCCCCCCOC(=O)CCCCCCN(CCCCCCC(=O)OCC(CCCCCC)CCCCCCCC)CCN(CCO)CCO (stereo not shown) [U-104, O-2-己基癸基-O’-十二烷基-6,6'-((2-(双(2-羟乙基)氨基)乙基)氮杂二烷基)二庚酸酯] | 48.7 | 47.9 |  |  | 
15 | CCCCCCCCCCCOC(=O)CCCCCN(CCO)CCCCCCCC(=O)OC(CCCCCCCC)CCCCCCCC [SM-102, 8-[(2-羟乙基)[6-氧代-6-(十一烷基氧基)己基]氨基]辛酸1-辛基壬基酯, reference compound] | 10.2 | 11.3 |  | ~10^7 p/s | 开始减弱
16 | CCCCCCCCC(CCCCCC)COC(=O)CCCCCN(CCCCCC(=O)OCC(CCCCCC)CCCCCCCC)CCCN(CCO)CCO (stereo not shown) [U-101, 双(2-己基癸基)-6,6'-((3-(双(2-羟乙基)氨基)丙基)氮杂二烷基)二己酸酯] | 50.6 | 52.8 | 更高一些 |  | 
17 | CCCCCCCCC(CCCCCCCC)OC(=O)CCCCCCN(CCCCCCC(=O)OC(CCCCCCCC)CCCCCCCC)CCN(CCO)CCO [U-106, 双(1-辛基壬基)-7,7'-((2-(双(2-羟乙基)氨基)乙基)氮杂二烷基)二庚酸酯] | 47.8 | 45.5 |  |  | 
18 | CCCCCCCCCCCCOC(=O)CCCCCN(CCCCCC(=O)OC(CCCCCCC)CCCCCCC)CCCN(CCO)CCO [U-111, O-1-庚基辛基-O’-十二烷基-6,6'-((3-(双(2-羟乙基)氨基)丙基)氮杂二烷基)二己酸酯] | 44.3 | 41.7 | 更高一些 |  | 
